Experimental data reported in US10028966B2 (Avalyn Pharma Inc., priority 2014, dated 2018).

What was measured:
[1] = 85% saturation pirfenidone formulations exposed to several temperatures (re-crystallization); assay type: physicochemical
Source text: However, in all cases pirfenidone eventually re-crystallized. This re-crystallization was not inhibited by pre-filtration of the sample.

[2] = Aerosol tolerability analysis of low concentration dosage forms; design: key to Throat Irritation: 1 = none; 5 = strong
Source text: Additional observations include maintaining osmolality between about 250 to about 500 mOsmo/kg. The tolerability for formulations with an osmolalty outside this range may be adjusted with modifications in the above formulation parameters and device output and aerosol particle size characteristics.

## Cc1ccc(=O)n(-c2ccccc2)c1 [pirfenidone, 5-methyl-1-phenyl-2-(1H)-pyridone]
[1]; overnight at 4° C., 23.0 mg/mL (85% saturation), 4% EtOH, 8% PG, 88% phosphate buffer (5 mM), pH 6.6
  Recrystallization upon storage: No
[1]; overnight at 4° C., 29.5 mg/mL, 6% EtOH, 12% PG, 82% phosphate buffer (5 mM), pH 7.0
  Recrystallization upon storage: No
[1]; overnight at 4° C., […], 8% EtOH, 16% PG, 76% phosphate buffer (5 mM), pH 7.0
  Recrystallization upon storage: No
[1]; overnight at 15° C., 23.0 mg/mL (85% saturation), 4% EtOH, 8% PG, 88% phosphate buffer (5 mM), pH 6.6
  Recrystallization upon storage: No
[1]; overnight at 15° C., 29.5 mg/mL, 6% EtOH, 12% PG, 82% phosphate buffer (5 mM), pH 7.0
  Recrystallization upon storage: No
[1]; overnight at 15° C., […], 8% EtOH, 16% PG, 76% phosphate buffer (5 mM), pH 7.0
  Recrystallization upon storage: No
[1]; overnight at 25° C., 23.0 mg/mL (85% saturation), 4% EtOH, 8% PG, 88% phosphate buffer (5 mM), pH 6.6
  Recrystallization upon storage: No
[1]; overnight at 25° C., 27.2 mg/mL (saturation solubility), 4% EtOH, 8% PG, 88% phosphate buffer (5 mM), pH 6.6
  Recrystallization upon storage: Yes
[1]; overnight at 25° C., 29.5 mg/mL, 6% EtOH, 12% PG, 82% phosphate buffer (5 mM), pH 7.0
  Recrystallization upon storage: No
[1]; overnight at 25° C., 34.7 mg/mL, 6% EtOH, 12% PG, 82% phosphate buffer (5 mM), pH 7.0
  Recrystallization upon storage: Yes
[1]; overnight at 25° C., 43.7 mg/mL, 8% EtOH, 16% PG, 76% phosphate buffer (5 mM), pH 7.0
  Recrystallization upon storage: Yes
[1]; overnight at 25° C., […], 8% EtOH, 16% PG, 76% phosphate buffer (5 mM), pH 7.0
  Recrystallization upon storage: No
[1]; overnight at −20° C., 23.0 mg/mL (85% saturation), 4% EtOH, 8% PG, 88% phosphate buffer (5 mM), pH 6.6, crystals re-dissolved at 25° C. without agitation
  Recrystallization upon storage: Yes^f
[1]; overnight at −20° C., 29.5 mg/mL, 6% EtOH, 12% PG, 82% phosphate buffer (5 mM), pH 7.0, crystals re-dissolved at 25° C. without agitation
  Recrystallization upon storage: Yes^f
[1]; overnight at −20° C., […], 8% EtOH, 16% PG, 76% phosphate buffer (5 mM), pH 7.0, crystals re-dissolved at 25° C. without agitation
  Recrystallization upon storage: Yes^f
[2]; citrate 5 mM, MgCl2 130 mM, pH 5.5, pirfenidone 16 mg/mL
  Est. Osmolality: 490 mOsmo/Kg
[2]; citrate 5 mM, MgCl2 130 mM, pH 5.5, pirfenidone 16 mg/mL, 3.7 micron
  Throat Irritation: 3
[2]; citrate 5 mM, MgCl2 130 mM, saccharin 0.5 mM, pH 5.5, pirfenidone 16 mg/mL
  Est. Osmolality: 490 mOsmo/Kg
[2]; citrate 5 mM, MgCl2 130 mM, saccharin 0.5 mM, pH 5.5, pirfenidone 16 mg/mL, 3.7 micron
  Throat Irritation: 2
[2]; citrate 5 mM, NaCl 100 mM, MgCl2 43.3 mM, pH 5.5, pirfenidone 16 mg/mL
  Est. Osmolality: 430 mOsmo/Kg
[2]; citrate 5 mM, NaCl 100 mM, MgCl2 43.3 mM, pH 5.5, pirfenidone 16 mg/mL, 3.7 micron
  Throat Irritation: 3
[2]; citrate 5 mM, NaCl 100 mM, MgCl2 43.3 mM, saccharin 0.6 mM, pH 5.5, pirfenidone 16 mg/mL
  Est. Osmolality: 430 mOsmo/Kg
[2]; citrate 5 mM, NaCl 100 mM, MgCl2 43.3 mM, saccharin 0.6 mM, pH 5.5, pirfenidone 16 mg/mL, 3.7 micron
  Throat Irritation: 2
[2]; citrate 5 mM, NaCl 100 mM, pH 5.5, pirfenidone 4 mg/mL
  Est. Osmolality: 270 mOsmo/Kg
[2]; citrate 5 mM, NaCl 100 mM, pH 5.5, pirfenidone 4 mg/mL, 3.2 micron
  Throat Irritation: 2
[2]; citrate 5 mM, NaCl 100 mM, pH 5.5, pirfenidone 16 mg/mL (3.2 micron entry)
  Est. Osmolality: 400 mOsmo/Kg
[2]; citrate 5 mM, NaCl 100 mM, pH 5.5, pirfenidone 16 mg/mL (first 3.7 micron entry)
  Est. Osmolality: 400 mOsmo/Kg
[2]; citrate 5 mM, NaCl 100 mM, pH 5.5, pirfenidone 16 mg/mL (second 3.7 micron entry)
  Est. Osmolality: 400 mOsmo/Kg
[2]; citrate 5 mM, NaCl 100 mM, pH 5.5, pirfenidone 16 mg/mL, 3.2 micron
  Throat Irritation: 2
[2]; citrate 5 mM, NaCl 100 mM, pH 5.5, pirfenidone 16 mg/mL, 3.7 micron (first entry)
  Throat Irritation: 3
[2]; citrate 5 mM, NaCl 100 mM, pH 5.5, pirfenidone 16 mg/mL, 3.7 micron (second entry)
  Throat Irritation: 3
[2]; citrate 5 mM, NaCl 100 mM, saccharin 0.3 mM, pH 5.5, pirfenidone 4 mg/mL
  Est. Osmolality: 270 mOsmo/Kg
[2]; citrate 5 mM, NaCl 100 mM, saccharin 0.3 mM, pH 5.5, pirfenidone 4 mg/mL, 3.7 micron
  Throat Irritation: 2
[2]; citrate 5 mM, NaCl 100 mM, saccharin 0.7 mM, pH 5.5, pirfenidone 16 mg/mL (3.2 micron entry)
  Est. Osmolality: 400 mOsmo/Kg
[2]; citrate 5 mM, NaCl 100 mM, saccharin 0.7 mM, pH 5.5, pirfenidone 16 mg/mL (3.7 micron entry)
  Est. Osmolality: 400 mOsmo/Kg
[2]; citrate 5 mM, NaCl 100 mM, saccharin 0.7 mM, pH 5.5, pirfenidone 16 mg/mL (4.6 micron entry)
  Est. Osmolality: 400 mOsmo/Kg
[2]; citrate 5 mM, NaCl 100 mM, saccharin 0.7 mM, pH 5.5, pirfenidone 16 mg/mL, 3.2 micron
  Throat Irritation: 3
[2]; citrate 5 mM, NaCl 100 mM, saccharin 0.7 mM, pH 5.5, pirfenidone 16 mg/mL, 3.7 micron
  Throat Irritation: 2
[2]; citrate 5 mM, NaCl 100 mM, saccharin 0.7 mM, pH 5.5, pirfenidone 16 mg/mL, 4.6 micron (slower output device ~0.5 mL/minute)
  Throat Irritation: 1
[2]; citrate 5 mM, NaCl 100 mM, saccharin 0.9 mM, pH 5.5, pirfenidone 16 mg/mL (3.2 micron entry)
  Est. Osmolality: 400 mOsmo/Kg
[2]; citrate 5 mM, NaCl 100 mM, saccharin 0.9 mM, pH 5.5, pirfenidone 16 mg/mL (3.7 micron entry)
  Est. Osmolality: 400 mOsmo/Kg
[2]; citrate 5 mM, NaCl 100 mM, saccharin 0.9 mM, pH 5.5, pirfenidone 16 mg/mL, 3.2 micron
  Throat Irritation: 1
[2]; citrate 5 mM, NaCl 100 mM, saccharin 0.9 mM, pH 5.5, pirfenidone 16 mg/mL, 3.7 micron
  Throat Irritation: 2
[2]; citrate 5 mM, NaCl 150 mM, pH 5.5, pirfenidone 4 mg/mL (3.2 micron entry)
  Est. Osmolality: 330 mOsmo/Kg
[2]; citrate 5 mM, NaCl 150 mM, pH 5.5, pirfenidone 4 mg/mL (3.7 micron entry)
  Est. Osmolality: 330 mOsmo/Kg
[2]; citrate 5 mM, NaCl 150 mM, pH 5.5, pirfenidone 4 mg/mL, 3.2 micron
  Throat Irritation: 1
[2]; citrate 5 mM, NaCl 150 mM, pH 5.5, pirfenidone 4 mg/mL, 3.7 micron
  Throat Irritation: 2
[2]; citrate 5 mM, NaCl 150 mM, pH 5.5, pirfenidone 16 mg/mL
  Est. Osmolality: 400 mOsmo/Kg
[2]; citrate 5 mM, NaCl 150 mM, pH 5.5, pirfenidone 16 mg/mL, 3.7 micron
  Throat Irritation: 4
[2]; citrate 5 mM, NaCl 150 mM, saccharin 0.2 mM, pH 5.5, pirfenidone 4 mg/mL
  Est. Osmolality: 330 mOsmo/Kg
[2]; citrate 5 mM, NaCl 150 mM, saccharin 0.2 mM, pH 5.5, pirfenidone 4 mg/mL, 3.7 micron
  Throat Irritation: 2
[2]; citrate 5 mM, NaCl 150 mM, saccharin 0.3 mM, pH 5.5, pirfenidone 4 mg/mL
  Est. Osmolality: 330 mOsmo/Kg
[2]; citrate 5 mM, NaCl 150 mM, saccharin 0.3 mM, pH 5.5, pirfenidone 4 mg/mL, 3.7 micron
  Throat Irritation: 1
[2]; citrate 5 mM, NaCl 150 mM, saccharin 0.5 mM, pH 5.5, pirfenidone 16 mg/mL
  Est. Osmolality: 400 mOsmo/Kg
[2]; citrate 5 mM, NaCl 150 mM, saccharin 0.5 mM, pH 5.5, pirfenidone 16 mg/mL, 3.7 micron
  Throat Irritation: 1
[2]; citrate 5 mM, NaCl 150 mM, saccharin 0.9 mM, pH 5.5, pirfenidone 16 mg/mL
  Est. Osmolality: 400 mOsmo/Kg
[2]; citrate 5 mM, NaCl 150 mM, saccharin 0.9 mM, pH 5.5, pirfenidone 16 mg/mL, 3.7 micron
  Throat Irritation: 1
[2]; no buffer, NaCl 150 mM, pH ND, pirfenidone 16 mg/mL
  Est. Osmolality: 375 mOsmo/Kg
[2]; no buffer, NaCl 150 mM, pH ND, pirfenidone 16 mg/mL, 3.2 micron
  Throat Irritation: 5
[2]; no buffer, NaCl 150 mM, saccharin 0.7 mM, pH ND, pirfenidone 16 mg/mL
  Est. Osmolality: 375 mOsmo/Kg
[2]; no buffer, NaCl 150 mM, saccharin 0.7 mM, pH ND, pirfenidone 16 mg/mL, 3.2 micron
  Throat Irritation: 5
[2]; phosphate 5 mM, MgCl2 43.3 mM, pH 7, pirfenidone 16 mg/mL
  Est. Osmolality: 210 mOsmo/Kg
[2]; phosphate 5 mM, MgCl2 43.3 mM, pH 7, pirfenidone 16 mg/mL, 3.7 micron
  Throat Irritation: 5
[2]; phosphate 5 mM, MgCl2 43.3 mM, saccharin 0.5 mM, pH 7, pirfenidone 16 mg/mL
  Est. Osmolality: 210 mOsmo/Kg
[2]; phosphate 5 mM, MgCl2 43.3 mM, saccharin 0.5 mM, pH 7, pirfenidone 16 mg/mL, 3.7 micron
  Throat Irritation: 5
[2]; phosphate 5 mM, NaCl 50 mM, MgCl2 43.3 mM, pH 7, pirfenidone 16 mg/mL
  Est. Osmolality: 310 mOsmo/Kg
[2]; phosphate 5 mM, NaCl 50 mM, MgCl2 43.3 mM, pH 7, pirfenidone 16 mg/mL, 3.7 micron
  Throat Irritation: 4
